In ChEMBL document CHEMBL2157933, “The synthesis and antituberculosis activity of 5'-nor carbocyclic uracil derivatives” (Bioorg Med Chem, 2012):
Values after ≈ are worked out from the molar mass of the structure shown.

Key:
Assay type in all cases: functional
[1] = test system: Mycobacterium tuberculosis; test: Antibacterial activity against multidrug-resistant Mycobacterium tuberculosis MS-115 under anaerobic condition assessed as growth inhibition at 10 to 20 ug/ml by BACTEC method
[2] = test system: Mycobacterium tuberculosis; test: Antibacterial activity against multidrug-resistant Mycobacterium tuberculosis MS-115 under anaerobic condition assessed as growth inhibition at 20 ug/ml by BACTEC method; conditions: read-out: GI
[3] = test system: Mycobacterium tuberculosis; test: Antibacterial activity against multidrug-resistant Mycobacterium tuberculosis MS-115 under anaerobic condition assessed as growth inhibition at 10 ug/ml by BACTEC method; conditions: read-out: GI
[4] = test system: Mycobacterium tuberculosis; test: Antibacterial activity against multidrug-resistant Mycobacterium tuberculosis MS-115 under anaerobic condition by BACTEC method
[5] = test system: Mycobacterium tuberculosis; test: Antibacterial activity against multidrug-resistant Mycobacterium tuberculosis MS-115 under anaerobic condition assessed as growth inhibition at 5 ug/ml by BACTEC method; conditions: read-out: GI
[6] = test system: Mycobacterium tuberculosis; test: Antibacterial activity against multidrug-resistant Mycobacterium tuberculosis MS-115 under anaerobic condition assessed as growth inhibition at 0.1 ug/ml by BACTEC method; conditions: read-out: GI
[7] = test system: Mycobacterium tuberculosis; test: Antibacterial activity against multidrug-resistant Mycobacterium tuberculosis MS-115 under anaerobic condition assessed as growth inhibition at 2 ug/ml by BACTEC method; conditions: read-out: GI
[8] = test system: Mycobacterium tuberculosis; test: Antibacterial activity against multidrug-resistant Mycobacterium tuberculosis MS-115 under anaerobic condition assessed as growth inhibition at 100 ug/ml by BACTEC method; conditions: read-out: GI
[9] = test system: Mycobacterium tuberculosis; test: Antibacterial activity against multidrug-resistant Mycobacterium tuberculosis MS-115 under anaerobic condition assessed as growth inhibition at 1 ug/ml by BACTEC method; conditions: read-out: GI

Compound: CCCCCCCCCCCCC#Cc1cn(C2C=CC(O)C2)c(=O)[nH]c1=O (racemic)
- growth inhibition (GI) [1]: 100%

Compound: CCCCCCCCCCCCC#Cc1cn(C2C=CC(O)C2)c(=O)[nH]c1=O (single isomer, unassigned; (-))
- inhibition of growth at 20 µg/mL [2]: 100%
- inhibition of growth at 10 µg/mL [3]: 99%
- MIC99 [4]: 10 mg/L (≈ 25.9 µM)

Compound: CC[C@@H](CO)NCCN[C@@H](CC)CO [ETHAMBUTOL]
- inhibition of growth at 5 µg/mL [5]: 0%

Compound: NNC(=O)c1ccncc1 [ISONIAZID]
- inhibition of growth at 0.1 µg/mL [6]: 0%

Compound: CC1COc2c(N3CCN(C)CC3)c(F)cc3c(=O)c(C(=O)O)cn1c23 (stereo unspecified) [OFLOXACIN]
- inhibition of growth at 2 µg/mL [7]: 100%
- MIC99 [4]: 2 mg/L (≈ 5.53 µM)

Compound: NC(=O)c1cnccn1 [PYRAZINAMIDE]
- inhibition of growth at 100 µg/mL [8]: 0%

Compound: CO[C@H]1/C=C/O[C@@]2(C)Oc3c(C)c(O)c4c(O)c(c(/C=N/N5CCN(C)CC5)c(O)c4c3C2=O)NC(=O)/C(C)=C\C=C\[C@H](C)[C@H](O)[C@@H](C)[C@@H](O)[C@@H](C)[C@H](OC(C)=O)[C@@H]1C [RIFAMPIN]
- inhibition of growth at 1 µg/mL [9]: 0%

Compound: CN[C@@H]1[C@H](O[C@H]2[C@H](O[C@H]3[C@H](O)[C@@H](O)[C@H](N=C(N)N)[C@@H](O)[C@@H]3N=C(N)N)O[C@@H](C)[C@]2(O)C=O)O[C@@H](CO)[C@H](O)[C@H]1O [STREPTOMYCIN]
- inhibition of growth at 0.1 µg/mL [6]: 0%
